In PMC11380953, “Multivalent, calcium-independent binding of surfactant protein A and D to sulfated glycosaminoglycans of the alveolar epithelial glycocalyx” (American Journal of Physiology - Lung Cellular and …, 2024):

Tests used:
hSP-A [1] = molecular target: T1, hSP-A (Homo sapiens, UniProt Q8IWL1+Q8IWL2); experiment: Binding inhibition assay (hSP-A binding to coated mannan); conditions: GAGs 15 µM to 30 nM, 5 mM CaCl2 (Fig. 1G)
T1 construct: Human PAP patient, BAL isolated; from tissue; host or cells: bronchoalveolar lavage fluid of a patient with pulmonary alveolar proteinosis
T1 sequence (Q8IWL2 21-248): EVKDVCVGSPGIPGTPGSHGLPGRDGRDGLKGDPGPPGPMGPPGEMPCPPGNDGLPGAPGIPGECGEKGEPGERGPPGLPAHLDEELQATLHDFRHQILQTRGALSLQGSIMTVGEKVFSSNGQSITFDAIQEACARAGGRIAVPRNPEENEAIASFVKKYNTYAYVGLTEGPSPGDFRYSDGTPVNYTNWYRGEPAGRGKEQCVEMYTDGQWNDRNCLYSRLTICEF
T1 sequence (Q8IWL1 21-248): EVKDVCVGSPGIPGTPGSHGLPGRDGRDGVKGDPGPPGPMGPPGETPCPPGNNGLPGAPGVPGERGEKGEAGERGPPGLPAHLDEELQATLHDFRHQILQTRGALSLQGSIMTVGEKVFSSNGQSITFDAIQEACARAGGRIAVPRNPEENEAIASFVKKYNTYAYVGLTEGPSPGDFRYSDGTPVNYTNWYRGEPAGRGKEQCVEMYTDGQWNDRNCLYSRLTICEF
Protocol: Following previously described assays ([41], [42]), 96-well plates (83.3924.005, Sarstaedt AG, Nümbrecht, Germany) were coated with 70 ng/well (total volume of 100 µL/well) of mannan (M7504, Sigma-Aldrich, St. Louis) dissolved in 0.1 M NaHCO3 buffer (pH 9.6) overnight at 4°C. After removal of the coating solution, wells were blocked with 100 µL of 5 mM Tris with 2% BSA (Serva, Heidelberg, Germany) at room temperature for 2 h. Plates were washed three times with 100 µL/well washing buffer (5 mM Tris, 0.9% NaCl, 0.05% Tween-20, and 5 mM CaCl2). Next, different concentrations of HA, HS, or CS ranging from 15 µM to 30 nM and hSP-A at 14 ng/well were added to washing buffer with 0.1% BSA. The plate was incubated for 2 h at room temperature to allow the protein to bind to either mannan or GAGs. After subsequent washing, as stated before, mannan-bound hSP-A was immunodetected by incubation with a specific anti-SP-A antibody (ab190087, Abcam, Cambridge, UK) at a 0.5 µg/mL concentration for 2 h at room temperature in washing buffer. After washing the excess of antibody, a secondary antibody conjugated with HRP (horseradish peroxidase) anti-goat (Abcam, ab 6885, Cambridge, UK) was added at 2 µg/mL for 1 h at room temperature. After washing, the color reaction was developed by adding 50 µL of TMB liquid substrate (T0440, Sigma-Aldrich, St. Louis). After 30 min, the reaction was stopped by adding 50 µL of Stop Reagent (S5814, Sigma-Aldrich, St. Louis) and the plate was read at 450 nm in a plate reader (FLUOstar Omega, BMG Labtech, Ortenberg, Germany).
The data of the binding inhibition assay were analyzed in GraphPad Prism 9.5.1 using the “normalize” function and fitting to the nonlinear regression dose-response inhibition. […] The fluorescence values from the collectin-based binding assay were normalized using the same “normalize” function in GraphPad, and the statistical test used was the “non-parametric Kruskal-Wallis” test. The statistical test used for the DMMB assay for GAG quantification was also the “non-parametric Kruskal-Wallis” test.

hSP-A [2] = molecular target: T1, hSP-A; experiment: Collectin-based binding assay (immobilized hSP-A, WGA-AlexaFluor488 detection); conditions: for normalized fluorescence of WGA bound to GAG on immobilized hSP-A: absence of calcium (Fig. 4B, C); for binding of immobilized hSP-A to GAG (normalized fluorescence): presence of 5 mM calcium (Fig. 4B, C)
Protocol: hSP-A was immobilized in a black 96-well plate (655076, Greiner BIO-One, Frickenhausen, Germany) by coating the plate with a specific anti-SP-A antibody (Abcam, abab190087, Cambridge, UK) at a concentration of 0.5 µg/mL in coating buffer [0.1 M NaHCO3 buffer (pH 9.6)] at 4°C overnight. Afterward, the plate was blocked with 100 µL Synblock (Bio-Rad, BUF034B, California) for 2 h at room temperature. Then, hSP-A was added at 14 ng/well and incubated with the antibody for 1 h at room temperature in washing buffer (5 mM Tris, 0.9% NaCl, and 0.05% Tween-20) to immobilize it. After washing with washing buffer, different concentrations of HA or HS ranging from 10 mM to 1 nM were added in either washing buffer without calcium or with 5 mM CaCl2 and incubated with the immobilized protein for 1 h at room temperature. The following washing steps were performed with washing buffer containing no calcium or 5 mM CaCl2. To detect the GAGs bound to the protein, an AlexaFluor488-conjugated wheat germ agglutinin (WGA, W11261, Invitrogen, Massachusetts) was added at 50 µg/mL in washing buffer containing no calcium or 5 mM CaCl2 and incubated it for 30 min at room temperature protected from light. After washing with washing buffer with or without calcium, 100 µL of washing buffer without calcium was added to read the fluorescence of the bound WGA with an excitation filter at 485 nm and an emission filter at 520 nm in a plate reader (FLUOstar Omega, BMG Labtech, Ortenberg, Germany).
The data of the binding inhibition assay were analyzed in GraphPad Prism 9.5.1 using the “normalize” function and fitting to the nonlinear regression dose-response inhibition. The best fitting was achieved using the “[Inhibitor] versus response–variable slope (four parameters)” model. The fluorescence values from the collectin-based binding assay were normalized using the same “normalize” function in GraphPad, and the statistical test used was the “non-parametric Kruskal-Wallis” test. The statistical test used for the DMMB assay for GAG quantification was also the “non-parametric Kruskal-Wallis” test.

Row | Substance | hSP-A binding inhibition to mannan (hSP-A [1]) | normalized fluorescence of WGA bound to GAG on immobilized hSP-A (hSP-A [2]) | binding of immobilized hSP-A to GAG (normalized fluorescence) (hSP-A [2])
1 | heparan sulfate sodium [HS] | in the µM range | increased fluorescence | able to bind
2 | hyaluronic acid sodium salt [HA] | in the µM range | no significant increase in fluorescence | able to bind
3 | chondroitin sulfate sodium salt [CS] | in the µM range |  | 
